From paper PMC4559561, “Radioiodinated PARP1 tracers for glioblastoma imaging” (EJNMMI Research, 2015)
Values joined by “and” are separate entries in the source; they are usually repeats but may differ in a detail not shown here. Equal entries are not always repeated. Values belong to the compound of their own block, whether it stands above or below them.

Legend:
[1] = Plasma protein fraction by rapid equilibrium dialysis in mouse serum; type: in vitro ADME; details: 10 μM compound in mouse serum vs PBS, 37 °C, read-out: Plasma Free Fraction
Protocol: The plasma protein fraction was determined using the Rapid Equilibrium Dialysis Device System (Life Technologies, Grand Island, NY) according to the manufacturer’s protocol. Membrane dialysis was performed with 10 μM of compound in mouse serum (500 μL) on one side of the membrane and PBS (750 μL) on the other side. The system was sealed with parafilm and incubated for 4 h at 37 °C on an orbital shaker set to 250 rpm. Thereafter, 400 μL of solution was taken from both sides, and samples were treated twice with an equal amount of AcN and vortexed to remove protein before HPLC analysis. After injection (100 μL), the I-PARPi peaks from each sample were then integrated and the protein bound fraction was determined. The data was analyzed using Prism 6.0c.

[2] = tested on: U87 MG subcutaneous tumors; assay: In vivo blocking study: PARPi-FL uptake in tumors, ex vivo epifluorescence imaging; set-up: species or system mouse
Text: One hour post injection, the mice were sacrificed and the tumors were resected and imaged with the IVIS spectrum fluorescence imaging system (PerkinElmer, Waltham, MA) using Living Image 4.4 software. The tumors were also imaged microscopically with the 5Live fluorescent confocal microscope using the 488 nm laser for PARPi-FL excitation.

[3] = target: T1, PARP1 high specific activity (HSA) enzyme (Homo sapiens, UniProt P09874); assay: PARP-1 IC50 determination, commercial colorimetric assay (Trevigen); type: biochemical; details: 0.5 U PARP1 HSA enzyme, 10 min, histone-coated plates, triplicate
T1 construct: purchased Trevigen, Gaithersburg, MD
T1 sequence (P09874 whole entry): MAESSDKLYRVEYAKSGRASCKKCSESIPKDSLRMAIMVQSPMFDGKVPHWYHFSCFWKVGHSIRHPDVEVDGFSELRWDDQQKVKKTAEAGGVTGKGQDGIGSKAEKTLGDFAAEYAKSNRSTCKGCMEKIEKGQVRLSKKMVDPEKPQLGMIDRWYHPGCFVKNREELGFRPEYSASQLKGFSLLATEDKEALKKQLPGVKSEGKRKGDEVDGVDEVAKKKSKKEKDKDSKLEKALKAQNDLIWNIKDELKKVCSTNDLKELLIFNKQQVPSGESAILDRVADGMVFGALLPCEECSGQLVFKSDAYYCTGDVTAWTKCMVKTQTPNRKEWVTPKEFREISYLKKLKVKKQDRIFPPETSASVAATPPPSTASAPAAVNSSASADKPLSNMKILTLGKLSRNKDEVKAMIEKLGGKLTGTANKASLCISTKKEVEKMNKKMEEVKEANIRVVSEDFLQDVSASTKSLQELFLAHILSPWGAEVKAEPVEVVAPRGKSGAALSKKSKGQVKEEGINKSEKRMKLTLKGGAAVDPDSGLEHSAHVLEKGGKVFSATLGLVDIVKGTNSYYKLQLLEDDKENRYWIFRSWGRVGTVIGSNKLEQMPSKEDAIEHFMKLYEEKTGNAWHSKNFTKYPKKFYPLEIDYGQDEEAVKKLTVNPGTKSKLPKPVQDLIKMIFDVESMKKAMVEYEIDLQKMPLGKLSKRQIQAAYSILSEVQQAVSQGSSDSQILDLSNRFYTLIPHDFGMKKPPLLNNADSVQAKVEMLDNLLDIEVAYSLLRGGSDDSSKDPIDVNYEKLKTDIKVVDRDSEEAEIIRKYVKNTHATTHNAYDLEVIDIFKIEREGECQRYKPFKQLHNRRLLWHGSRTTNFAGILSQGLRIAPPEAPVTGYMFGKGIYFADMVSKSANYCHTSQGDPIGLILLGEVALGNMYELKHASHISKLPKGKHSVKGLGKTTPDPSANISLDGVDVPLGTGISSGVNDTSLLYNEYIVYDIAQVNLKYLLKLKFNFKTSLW
Protocol: A commercially available colorimetric assay (Trevigen, Gaithersburg, MD) was used to measure PARP-1 activity in vitro in the presence of varying concentrations of the different iodo-[…]. […] All experiments were carried out in triplicate. […] All reaction mixtures were adjusted to a final volume of 50 μl, and a final concentration of 1 % DMSO in assay buffer. The remainder of the assay was performed according to the manufacturer's instructions. PARP1 activity was measured by absorbance at 450 nm in each well using a SpectraMax M5 spectrophotometer with SoftMax Pro software (Molecular Devices, Sunnyvale, CA).

[4] = Chemical hydrophobicity index (CHI) by reverse phase HPLC, Log P derived from CHI; type: physicochemical; details: for CHI (chromatographic hydrophobicity index): from HPLC retention time against standards
Protocol: Chemical hydrophobicity indices (CHIs) were measured using procedures developed previously. Briefly, reverse phase HPLC was used to measure the retention times of a set of standards with known CHI. A standard curve was then created to calculate the CHIs of all iodo-PARPi based on the HPLC retention time.

U87 MG cells = assay: In vitro blocking study: competitive inhibition of PARPi-FL uptake; type: cell-based, human; details: 20 min
Protocol: U87 MG cells were seeded into a 96-well plate in a concentration of 1 × 10^4 cells per well. After 24 h, the cells were incubated with either the fluorescent PARP1 inhibitor PARPi-FL (250 nM) alone or with one of the iodo-PARPi inhibitors at a 100-fold higher concentration (25 μM) for 20 min. […] All incubation solutions also included Hoechst 33342 nuclear stain (Sigma-Aldrich, St. Louis, MO). The cells were washed twice with media and once with PBS for 5 min each and imaged on an LSM 5Live confocal microscope (Zeiss, Oberkochen, Germany). All wells were imaged with the DAPI filter for the Hoechst staining and the FITC filter for the PARPi-FL staining. The DAPI and FITC channels were co-registered, and the green fluorescence in the location of the Hoechst staining was quantified for each image. The percent reduction in PARPi-FL uptake was calculated based on the level of fluorescence intensity seen in each image and normalized to the cells receiving no iodo-PARPi inhibitor. Experiments were performed in triplicate.

[5] = In vitro whole blood stability; type: in vitro ADME; details: mouse blood, 37 °C, radio-HPLC
Protocol: The in vitro stability was assessed by incubating 6 μCi [^131I]-PARPi in mouse blood for 0 to 60 min at 37 °C. At baseline, 15, 30, and 60 min, the samples were immediately placed on ice and mixed 1:1 with a solution of AcN/DMSO (250 μL) and then vigorously vortexed for 30 s to precipitate out serum protein. The sample was centrifuged at 3000 RCF for 3 min at 4 °C, and the supernatant was collected. This procedure was repeated three times, and the combined supernatants were analyzed by HPLC equipped with radioactive detector (Shimadzu, Kyoto, Japan), collecting samples every 30 s. Radioactivity of each fraction was measured on a Wizard 2470 Automatic Gamma Counter (Perkin Elmer, Waltham, MA), and the blood stability was analyzed using Prism 6.0c (GraphPad Software, La Jolla, CA).

[6] = Blood half-life by serial blood sampling; type: in vivo, mouse; details: healthy athymic nude mice, 50 μCi i.v.
Protocol: Blood half-life was determined by measuring the activity in serial blood samplings. Specifically, healthy female nude mice (8–10 weeks old, 20–25 g in weight, n = 3) were injected via the tail vein with 50 μCi [^131I]-I2-PARPi in 200 μL of solution PBS/PEG300 (10:1). The blood was sampled from the saphenous vein at 5, 15, 30, 60, 120, and 240 min post injection. The blood was weighed and radioactivity was measured on a Wizard 2470 Automatic Gamma Counter (Perkin Elmer, Waltham, MA). Measurements in counts per minute were calculated as the mean %ID/g. The blood half-life was calculated using Prism 6.0c (GraphPad Software, La Jolla, CA).

[7] = tested on: U87 MG subcutaneous xenografts; assay: Biodistribution in U87 MG xenograft mice; type: in vivo, mouse; details: U87 MG tumor-bearing mice, 2 h post intravenous injection
Protocol: (§1) Biodistribution experiments were conducted on female nude mice (8–10 weeks old and 20–25 g in weight, n = 21) bearing U87 MG or U251 MG subcutaneous xenografts. The radiolabeled small molecule preparation ([…] of [^131I]-I2-PARPi in 200 μL of a solution 90 % PBS 10 % PEG300) was administrated via the lateral tail vein. To determine the optimal specific activity to achieve the highest tumor to organ ratio, various specific activities were tested (5, 50, and 250 mCi/μmol) in mice bearing U87 MG tumors. The compound was allowed to circulate for 2 h post injection at which time the mice were sacrificed and organs were harvested (n = 3). After determining the optimal specific activity, the optimal time for imaging was determined by testing the drug distribution in nude mice bearing U87 MG tumors at different time points. The drug was allowed to circulate for various times (1, 2, and 6 h), after which the mice were sacrificed (n = 3). The radioactive content in the tissue of interest (blood, tumor, muscle, bone, liver, spleen, kidney, heart, lung, pancreas, brain, skin, small intestine, large intestine, stomach, tail, thyroid, and feces) was measured on a Wizard 2470 Automatic Gamma Counter and the tissue-associated activity was calculated as the mean %ID/g.

[8] = tested on: U251 MG subcutaneous xenografts; assay: Biodistribution in U251 MG xenograft mice; type: in vivo, mouse; details: 2 h after tracer injection
Protocol: as §1

fraction unbound at 4 h, 10 μM [1]: 0.096 ± 0.015
SMILES: O=C(c1cccc(I)c1)N1CCN(C(=O)c2cc(Cc3n[nH]c(=O)c4ccccc34)ccc2F)CC1 [I1-PARPi, 4-(4-fluoro-3-(4-(3-iodobenzoyl)piperazine-1-carbonyl)benzyl)phthalazin-1(2H)-one]

SMILES: O=C(c1ccc(I)cc1)N1CCN(C(=O)c2cc(Cc3n[nH]c(=O)c4ccccc34)ccc2F)CC1 [I2-PARPi, 4-(4-fluoro-3-(4-(4-iodobenzoyl)piperazine-1-carbonyl)benzyl)phthalazin-1(2H)-one]
fraction unbound at 4 h, 10 μM [1]: 0.115 ± 0.001
reduction of PARPi-FL tumor fluorescence in vivo ([2]; I2-PARPi 125 mg/kg 30 min before PARPi-FL 2.5 mg/kg, tumors resected 1 h post injection, vs PARPi-FL alone): 78 ± 4%

IC50 [3]: 34 ± 3 nM
CHI (chromatographic hydrophobicity index) [4]: 66.7
fraction unbound at 4 h, 10 μM [1]: 0.07 ± 0.001
SMILES: O=C(Cc1cccc(I)c1)N1CCN(C(=O)c2cc(Cc3n[nH]c(=O)c4ccccc34)ccc2F)CC1 [I3-PARPi, 4-(4-fluoro-3-(4-(2-(3-iodophenyl)acetyl)piperazine-1-carbonyl)benzyl)phthalazin-1(2H)-one]

IC50 [3]: 74 ± 5 nM
CHI (chromatographic hydrophobicity index) [4]: 66.7
fraction unbound at 4 h, 10 μM [1]: 0.05 ± 0.003
SMILES: O=C(Cc1ccc(I)cc1)N1CCN(C(=O)c2cc(Cc3n[nH]c(=O)c4ccccc34)ccc2F)CC1 [I4-PARPi, 4-(4-fluoro-3-(4-(2-(4-iodophenyl)acetyl)piperazine-1-carbonyl)benzyl)phthalazin-1(2H)-one]

IC50 [3]: 107 ± 4 nM
CHI (chromatographic hydrophobicity index) [4]: 71.6
fraction unbound at 4 h, 10 μM [1]: 0.078 ± 0.014
SMILES: O=C(CCc1cccc(I)c1)N1CCN(C(=O)c2cc(Cc3n[nH]c(=O)c4ccccc34)ccc2F)CC1 [I5-PARPi, 4-(4-fluoro-3-(4-(3-(3-iodophenyl)propanoyl)piperazine-1-carbonyl)benzyl)phthalazin-1(2H)-one]

IC50 [3]: 47 ± 5 nM
CHI (chromatographic hydrophobicity index) [4]: 71.6
fraction unbound at 4 h, 10 μM [1]: 0.047 ± 0.005
SMILES: O=C(CCc1ccc(I)cc1)N1CCN(C(=O)c2cc(Cc3n[nH]c(=O)c4ccccc34)ccc2F)CC1 [I6-PARPi, 4-(4-fluoro-3-(4-(3-(4-iodophenyl)propanoyl)piperazine-1-carbonyl)benzyl) phthalazin-1(2H)-one]

logPCHI ([4]; derived from CHI by equation): 0.8
SMILES: O=C(c1cc(Cc2n[nH]c(=O)c3ccccc23)ccc1F)N1CCN(C(=O)C2CC2)CC1 [Olaparib]
reduction of PARPi-FL uptake (fluorescence signal) (U87 MG cells; 25 µM): 73 ± 11%
reduction of PARPi-FL uptake (fluorescence signal) (U87 MG cells; PARPi-FL 250 nM, inhibitor 25 μM (100-fold), U87 MG cells): 73 ± 10%

SMILES: Cc1cc(C)n2c1C=C1C=CC(CCC(=O)N3CCN(C(=O)c4cc(Cc5n[nH]c(=O)c6ccccc56)ccc4F)CC3)=[N+]1[B-]2(F)F [PARPi-FL, reference compound]
tumor fluorescence, average radiant efficiency ([2]; PARPi-FL 2.5 mg/kg alone): 2.03 × 10^8 ± 1.84 × 10^7

alpha blood half-life [6]: 14.3 min
beta blood half-life [6]: 94.6 min
share of alpha phase [6]: 96.25%
share of beta phase [6]: 3.75%
weighted blood half-life t1/2(weighted) [6]: 17.1 min
uptake in brain [7]: 0.007 ± 0.002 %ID/g
uptake in muscle [7]: 0.04 ± 0.02 %ID/g
uptake in tumor [7]: 0.50 ± 0.08 %ID/g
uptake in liver [8]: 2.35 ± 0.57 %ID/g and 2.4 ± 0.6 %ID/g
uptake in thyroid [8]: 0.24 ± 0.06 %ID/g
uptake in tumor [8]: 0.43 ± 0.06 %ID/g
SMILES: O=C(c1ccc([131I])cc1)N1CCN(C(=O)c2cc(Cc3n[nH]c(=O)c4ccccc34)ccc2F)CC1 [[^131I]-I2-PARPi]
in vitro blood stability [5]: stability of the drug over the course of 120 min
uptake in brain [8]: 0.01 ± 0.00 %ID/g and 0.011 ± 0.003 %ID/g
uptake in muscle [8]: 0.03 ± 0.01 %ID/g and 0.033 ± 0.012 %ID/g
